Test results: patent US6710066B2, “Photochemotherapeutic method using 5-aminolevulinic acid and other precursors of endogenous porphyrins” (priority 1989, dated 2004)

Key:
[1] = test system: P. yoelii; test: ALA-induced fluorescence within erythrocytes parasitized by P. yoelii, mice given ALA
[2] = test system: endometrium (uterine horns); test: Long term photodynamic endometrial ablation in rats; format: in vivo, rat
Description: Rats were divided into 2 groups (6 and 7 rats/group) and their uterine horns were injected with 4 or 8 mg ALA. Example 1, of U.S. application Ser. No. 08/082,113, filed Jun. 21, 1993 (U.S. Pat. No. 5,422,093), was repeated with the exception that all rats were exposed to light and the time from ALA administration to breeding was extended from 10-20 days to 60-70 days. All other procedures were identical to Example 1.
In the groups of rats (n=7) treated with 8 mg ALA 2 of 7 became pregnant in ALA treated uterine horns compared with 7 of 7 pregnancies in the saline treated horns.
In order to show normal uterine histology of a nonpregnant uterine horn contralateral to a pregnant uterine horn one uterine horn was ligated at its distal end prior to breeding. At gestation of 10-15 days nonpregnant uterine horns were harvested and histologically processed. The uterine mucosa was lined with columnar epithelium and there was hypertrophic infolding of endometrial tissue with tortuous glands.

[3] = test system: acne lesions; test: PpIX induced fluorescence in subjects with truncal acne after topical ALA; format: in vivo, human
Description: Evaluation of PpIX induced fluorescence in 8 subjects with mild to moderate truncal acne was performed. Bacterial infections are frequently associated with lesions of acne, e.g., P. acne. Following evaluation of baseline acne lesion fluorescence, ALA solution 10 and 20% was applied to 10 5 cm^2 sites on the chest or back of volunteers and evaluated at times 0, 3, 8 and 24 hours after ALA application. One site of each concentration was also occluded with opaque film for 3 hours and evaluated at similar time points for comparison with unoccluded sites. Fluorescence of both acneiform lesions as well as surrounding normal skin was assessed visually using a 4 point grading system (0=none, 4=extremely severe) and documented photographically.

[4] = test system: P. chabaudi; test: In vitro photosensitization of P. chabaudi, cells of infected mice incubated with ALA; format: cell-based, mouse
[5] = 250 mg/kg ALA intraperitoneal, heavily parasitized mice
[6] = ALA injected into infected mice
[7] = ALA solution 10 and 20%, unoccluded sites
[8] = sites occluded with opaque film for 3 hours

Question: `NCC(=O)CCC(=O)O` [ALA, 5-Amino-4-oxopentanoic acid] was tested. Which “protoporphyrin fluorescence of pellet and supernatant after saponin hemolysis” value ([1]; 250 mg/kg ALA IP, 4 hours, excitation 410 nm, emission 635 nm) did it give?
Answer: The value was “Protoporphyrin fluorescence was detected only in Plasmodial pellet derived from infected mice given ALA”.

Question: What about the “fluorescence microscopy of blood/spleen cells” value ([1]; 250 mg/kg ALA intraperitoneal) of the same compound?
Answer: The value was “Red fluorescence developed within parasitized erythrocytes”.

Question: And the “fluorescence flow cytometry of peripheral blood and spleen erythrocytes” value [1, 5]?
Answer: Its value is “developed red fluorescence”.

Question: And the “spectrophotofluorometry of blood and spleen cell pellets” value [1, 5]?
Answer: The value was “Protoporphyrin was the only fluorophore that was identified”.

Question: What about the “erythrocyte fluorescence by flow cytometer (accumulation of PpIX)” value ([1]; 250 mg/kg ALA intraperitoneal, tail blood at intervals) of the same compound?
Answer: The value was “Only infected mice given ALA developed fluorescence in their erythrocytes”.

Question: What about the “PpIX accumulation in non-infected erythrocytes and leukocytes” value [1, 6] of the same compound?
Answer: Its value is “significant concentrations of PpIX did not accumulate”.

Question: What about the “PpIX accumulation in plasmodia within erythrocytes” value [1, 6] of the same compound?
Answer: The value was “accumulated in many of the plasmodia”.

Question: What about the “accumulation of fluorescing concentrations of PpIX” value ([1]; exposed to exogenous ALA, Example 10 list) of the same compound?
Answer: Its value is “ALA-induced fluorescence”.

Question: And the “implantations in uterine horns treated with ALA” value ([2]; 4 mg ALA, light, breeding 60-70 days after photodynamic treatment, n=6)?
Answer: Its value is “no implantations”.

Question: What about the “rats pregnant in ALA treated uterine horns” value ([2]; 8 mg ALA, light, breeding 60-70 days after treatment, n=7, saline horns 7 of 7) of the same compound?
Answer: The value was 2 of 7.

Question: And the “endometrial histology after photodynamic treatment” value ([2]; despite hormonal stimulus of contralateral pregnancy)?
Answer: Its value is “atrophic endometrium”.

Question: What about the “PpIX fluorescence by 24 hours” value [3, 7] of the same compound?
Answer: The value was “weak or no fluorescence”.

Question: What about the “dose dependence of increase in PpIX fluorescence” value [3, 7] of the same compound?
Answer: Its value is “dose dependent”.

Question: And the “specificity of PpIX fluorescence” value [3, 7]?
Answer: The value was “specific for acne lesions and spared normal surrounding skin”.

Question: And the “time of maximum PpIX fluorescence” value [3, 7]?
Answer: Its value is 8 h.

Question: What about the “PpIX fluorescence at 24 hours” value [3, 8] of the same compound?
Answer: The value was “remained present at 24 hours”.

Question: What about the “distribution of PpIX fluorescence” value [3, 8] of the same compound?
Answer: Its value is “developed PpIX fluorescence in both acne lesions and normal surrounding skin”.

Question: What about the “PpIX accumulation in non-infected erythrocytes and leukocytes” value [4] of the same compound?
Answer: Its value is “significant concentrations of PpIX did not accumulate”.

Question: And the “PpIX accumulation in plasmodia within erythrocytes” value [4]?
Answer: The value was “accumulated within many of the plasmodia”.
